US12036292B2, “Heterobiaryl compounds and imaging agents for imaging huntingtin protein” (CHDI Foundation, Inc., priority 2020, dated 2024)

Biological target: T1, MBP-HTT(1-89)Q46-His(6×) (“Exon1-Q46”) protein aggregates (Homo sapiens, UniProt P42858, INS38QQQQQQQQQQQQQQQQQQQQQQQQQ)
T1 construct: MBP-HTT(1-89)Q46-His(6×); His(6×) (C); made in house
Assay: Exon1-Q46 Radioligand Binding Assay
Settings: displacement of 0.3 nM ligand [3H3-methyl]-5-((5-methoxypyridin-2-yl)methoxy)-2-(pyrazin-2-yl)benzo[d]oxazole from 1 μM aggregated Exon1-Q46 protein; 60 minutes at 37° C.; read-out: Classified Potency
Method: Exon1-Q46 Radioligand Binding Assay
For radioligand binding assays (RBA) MBP-HTT(1-89)Q46-His(6×) (“Exon1-Q46”) protein was generated based on a previous publication (Scherzinger et al. Cell, Vol. 90, 549-558, Aug. 8, 1997). For experiments, 30 pM MBP-Exon1-Q46 was incubated with 150 μg/mL thrombin in assay buffer (150 mM NaCl, 50 mM Tris pH 8.0) and 2 mM CaCl2 for 16 hours at 37° C. Aggregated Exon1-Q46 was pelleted by centrifugation for 5 minutes at 13,000 rpm in a bench top centrifuge and re-dissolved in the same volume of assay buffer. Test compounds were prepared by titration in DMSO at 11 concentrations from 63 μM to 2 nM. For the RBA, Q46 protein aggregates and test compounds were pre-incubated in assay buffer for 20 minutes at room temperature, in 100 μL/well in a 96-well plate (pp, round bottom). Then, ligand was added in 50 μL/well and incubated for 60 minutes at 37° C. Final assay concentrations were 1 μM to 30 pM test compound, 1 μM Exon1-Q46 protein (equivalent monomer concentration) and 0.3 nM ligand [^3H3-methyl]-5-((5-methoxypyridin-2-yl)methoxy)-2-(pyrazin-2-yl)benzo[d]oxazole. Samples were transferred onto GF/B filter plates and washed 2× with 200 μL PBS using a Filtermate Harvester. After drying filter plates for 1 hour at 55° C., the back of the plates were sealed with foil and 30 μL/well scintillation fluid (Packard MicroScint 40) added, incubated for 15 minutes in the dark and counted in a MicroBeta reader. For analysis, replicate data from independent assay plates were normalized towards 0% and 100% inhibition using control wells of vehicle (0% inhibition) and 1 μM unlabeled [^3H3-methyl]-5-((5-methoxypyridin-2-yl)methoxy)-2-(pyrazin-2-yl)benzo[d]oxazole (100% inhibition). IC50 values were determined with a sigmoidal inhibition model with four variables (top, bottom, slope, IC50) in a global fit using the normalized replicate data.
The results for various example compounds were as provided in the table below (+++<100 nM; ++100-500; +500-10000; ND: not determined): […]

T1 sequence (P42858 with tags, fused parts or gaps with the stated changes limits assumed): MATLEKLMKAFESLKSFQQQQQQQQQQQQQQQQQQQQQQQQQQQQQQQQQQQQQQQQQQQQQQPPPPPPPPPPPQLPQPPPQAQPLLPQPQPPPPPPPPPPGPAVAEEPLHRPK

IC50, < 100 nM:
O=C(Nc1ccccc1)c1cc(-c2cccc(Cl)c2)ncn1 [Example 1, 6-(3-Chlorophenyl)-N-phenylpyrimidine-4-carboxamide]
O=C(c1cc(-c2cccc(Cl)c2)ncn1)N1CCc2ccccc21 [Example 2]
COc1cncc(NC(=O)c2cc(-c3cccc(Cl)c3)ncn2)c1 [Example 3]
COc1cccc(-c2cc(C(=O)Nc3ccc(=O)n(C)n3)ncn2)c1 [Example 4, 6-(3-Methoxyphenyl)-N-(1-methyl-6-oxo-1,6-dihydropyridazin-3-yl)pyrimidine-4-carboxamide]
COc1cc(-c2cc(C(=O)Nc3cncc(OC)c3C)ncn2)ccn1 [Example 5]
COc1cc(-c2cc(C(=O)Nc3cncc(Cl)c3OC)ncn2)ccn1 [Example 6]
COc1cncc(NC(=O)c2cc(-c3ccnc(OC)c3)ncn2)c1 [Example 7]
COc1ccc(-c2cc(C(=O)Nc3ccc(=O)n(C)n3)ncn2)cc1Cl [Example 8, 6-(3-Chloro-4-methoxyphenyl)-N-(1-methyl-6-oxo-1,6-dihydropyridazin-3-yl)pyrimidine-4-carboxamide]
COc1cc(-c2cc(C(=O)Nc3ccc(=O)n(C)n3)ncn2)ccc1Cl [Example 9]
COc1cc(-c2cc(C(=O)Nc3ccc(=O)n(C)n3)ncn2)ccc1F [Example 10]
Cn1nc(NC(=O)c2cc(-c3cc(F)cc(Cl)c3)ncn2)ccc1=O [Example 11]
Cn1nc(NC(=O)c2cc(-c3ccc(F)c(Cl)c3)ncn2)ccc1=O [Example 12]
COc1ccc(CNC(=O)c2cc(-c3ccc(F)c(OC)c3)ncn2)nc1 [Example 13]
COc1cc(-c2cc(C(=O)N3Cc4cccnc4C3)ncn2)ccn1 [Example 14]
COc1cc(-c2cc(C(=O)NCc3ncccc3OC)ncn2)ccc1F [Example 15]
COc1ccnc(CNC(=O)c2cc(-c3ccc(F)c(OC)c3)ncn2)n1 [Example 16]
COc1ncc(-c2cc(C(=O)Nc3ccc(=O)n(C)n3)ncn2)cc1Cl [Example 17]
COc1ccc(-c2cc(C(=O)Nc3nccn(C)c3=O)ncn2)cc1Cl [Example 18]
COc1cc(C#N)cc(-c2cc(C(=O)Nc3ccc(=O)n(C)n3)ncn2)c1 [Example 19]
Cn1nc(NC(=O)c2cc(-c3cc(F)cc(C#N)c3)ncn2)ccc1=O [Example 20]
COc1cc(F)cc(-c2cc(C(=O)Nc3ccc(=O)n(C)n3)ncn2)c1 [Example 21]
Cc1cc(Cl)cc(-c2cc(C(=O)Nc3ccc(=O)n(C)n3)ncn2)c1 [Example 22]
Cn1nc(NC(=O)c2cc(-c3cc(F)nc(Cl)c3)ncn2)ccc1=O [Example 23]
Cn1ccnc(NC(=O)c2cc(-c3cc(F)cc(Cl)c3)ncn2)c1=O [Example 24]
COc1cnc(NC(=O)c2cc(-c3cc(F)cc(Cl)c3)ncn2)cn1 [Example 25]
COc1cc(C#N)cc(-c2cc(C(=O)Nc3ccc(=O)[nH]n3)ncn2)c1 [Example 26]
N#Cc1cc(F)cc(-c2cc(C(=O)Nc3ccc(=O)[nH]n3)ncn2)c1 [Example 27]
COc1ncc(NC(=O)c2cc(-c3cc(F)cc(Cl)c3)ncn2)cn1 [Example 28]
COc1cc(-c2cc(C(=O)NCc3nccc(=O)n3C)ncn2)ccc1F [Example 29, 6-(4-Fluoro-3-methoxyphenyl)-N-((1-methyl-6-oxo-1,6-dihydropyrimidin-2-yl)methyl)pyrimidine-4-carboxamide]
COc1ccc(-c2cc(C(=O)NCc3nccc(=O)n3C)ncn2)cc1Cl [Example 30]
Cn1c(CNC(=O)c2cc(-c3cc(F)cc(Cl)c3)ncn2)nccc1=O [Example 31]
Cn1c(CNC(=O)c2cc(-c3cc(F)cc(C#N)c3)ncn2)nccc1=O [Example 32]
COc1ncc(-c2cc(C(=O)NCc3nccc(=O)n3C)ncn2)cc1Cl [Example 33, 6-(5-Chloro-6-methoxypyridin-3-yl)-N-((1-methyl-6-oxo-1,6-dihydropyrimidin-2-yl)methyl)pyrimidine-4-carboxamide]
COc1ccnc(CNC(=O)c2cc(-c3cnc(OC)c(Cl)c3)ncn2)n1 [Example 34, 6-(5-chloro-6-methoxypyridin-3-yl)-N-((4-methoxypyrimidin-2-yl)methyl)pyrimidine-4-carboxamide]
Cn1cc(NC(=O)c2cc(-c3cc(F)cc(Cl)c3)ncn2)cnc1=O [Example 35, 6-(3-Chloro-5-fluorophenyl)-N-(1-methyl-2-oxo-1,2-dihydropyrimidin-5-yl)pyrimidine-4-carboxamide]
COc1ccc(-c2cc(C(=O)Nc3cnn(C)c(=O)c3)ncn2)cc1Cl [Example 36, 6-(3-Chloro-4-methoxyphenyl)-N-(1-methyl-6-oxo-1,6-dihydropyridazin-4-yl)pyrimidine-4-carboxamide]
COc1ccc(-c2cc(C(=O)Nc3cc(=O)n(C)cn3)ncn2)cc1Cl [Example 37]
Cn1cnc(NC(=O)c2cc(-c3cc(F)cc(Cl)c3)ncn2)cc1=O [Example 38]
Cn1ncc(NC(=O)c2cc(-c3cc(F)cc(Cl)c3)ncn2)cc1=O [Example 39]
COc1cc(-c2cc(C(=O)Nc3ccc(=O)n(C)n3)nc(-c3ccccc3)n2)ccn1 [Example 40, 6-(2-Methoxypyridin-4-yl)-N-(1-methyl-6-oxo-1,6-dihydropyridazin-3-yl)-2-phenylpyrimidine-4-carboxamide]
